Patent US20230047788A1, “COMPOSITIONS COMPRISING 5-CHOLESTEN-3, 25-DIOL, 3-SULFATE (25HC3S) OR PHARMACEUTICALLY ACCEPTABLE SALT THEREOF AND AT LEAST ONE CYCLIC OLIGOSACCHARIDE” (Virginia Commonwealth University, priority 2016, published 2023)

Assay: Effect of phosphate and borate buffers on chemical stability (% remaining, impurity profile), osmolality, pH and appearance of 25HC3S 30 mg/mL in 250 mg/mL HPBCD at 80°C and 60°C
Assay type: physicochemical
Description: A total of six 25HC3S formulations at 30 mg/mL in 250 mg/mL of 2-hydroxypropyl beta cyclodextrin (HPBCD) containing 10, 20, 50 and 100 mM phosphate buffers at pH 7.5 to 8.1 and 10 and 50 mM borate buffers at pH 9.4 were prepared for the stability study. The chemical stability (measured as % remaining of 25HC3S) and physical stability (osmolality, pH and appearance) of the formulations were monitored under accelerated conditions for up to 7 days at 80° C. and up to 29 days at 60° C.
Two stock solutions of phosphate buffer at 100 and 200 mM at pH 7.4 and 7.3, respectively and one borate buffer at 100 mM at pH 9.3 were prepared (Tables 22A and 22B) and used for 250 mg/mL HPBCD vehicles preparation (Table 23).
Approximately 1200 mg each of 25HC3S was weighed into 40 mL volumetric flasks and diluted to volume with the six HPBCD vehicles containing 10-100 mM phosphate buffers or 10 and 50 mM borate buffers, respectively (Table 24). The final concentration of 25HC3S was 30 mg/mL (wt/volume, without adjusting for API purity). Aliquots of 2 mL of each formulation were filled into 2 mL glass vials, stoppered and sealed for stability sample set-up at 60° C. and 80° C. to study the effect of phosphate buffer (pH 7.5-8.1) and borate buffer (pH 9.4) at various buffer concentrations on the stability of the HPBCD formulations (Table 26).
A 0.5 mL of sample solution was transferred to a 25 mL volumetric flask and QS'ed with methanol/water=95/5 for 25HC3S concentration determination by HPLC. The % remaining of 25HC3S was calculated as follows: […]

[1] = 250 mg/mL HPBCD, 50 mM borate, 80°C, day 0
[2] = 250 mg/mL HPBCD, 50 mM borate, 80°C, day 1
[3] = 250 mg/mL HPBCD, 50 mM borate, 80°C, day 2
[4] = 250 mg/mL HPBCD, 50 mM borate, 80°C, day 3
[5] = 250 mg/mL HPBCD, 50 mM borate, 80°C, day 7
[6] = 250 mg/mL HPBCD, 50 mM borate, day 0
[7] = 250 mg/mL HPBCD, 50 mM phosphate, 80°C, day 0
[8] = 250 mg/mL HPBCD, 50 mM phosphate, 80°C, day 1
[9] = 250 mg/mL HPBCD, 50 mM phosphate, 80°C, day 2
[10] = 250 mg/mL HPBCD, 50 mM phosphate, 80°C, day 3
[11] = 250 mg/mL HPBCD, 50 mM phosphate, 80°C, day 7
[12] = 250 mg/mL HPBCD, 50 mM phosphate, day 0
[13] = 250 mg/mL HPBCD, 100 mM phosphate, 80°C, day 0
[14] = 250 mg/mL HPBCD, 100 mM phosphate, 80°C, day 1
[15] = 250 mg/mL HPBCD, 100 mM phosphate, 80°C, day 2
[16] = 250 mg/mL HPBCD, 100 mM phosphate, 80°C, day 3
[17] = 250 mg/mL HPBCD, 100 mM phosphate, 80°C, day 7
[18] = 250 mg/mL HPBCD, 100 mM phosphate, day 0

In the case of `C[C@H](CCCC(C)(C)O)[C@H]1CC[C@H]2[C@@H]3CC=C4C[C@@H](OS(=O)(=O)[O-])CC[C@]4(C)[C@H]3CC[C@]12C.[Na+]` [25HC3S, 5-cholesten-3, 25-diol, 3-sulfate], the pH (250 mg/mL HPBCD, 20 mM phosphate, day 0) is reported as 7.81, the pH (250 mg/mL HPBCD, 50 mM borate, 60°C, 29 days) is reported as 9.19 and the 25HC3S concentration [1] is reported as 28.50 mg/mL. For the same molecule, the “% Remaining of 25HC3S” value [1] was 100.0%, the 25HC3S concentration [2] was 26.78 mg/mL and the “% Remaining of 25HC3S” value [2] was 94.0%. The Osmolality [2] was 527 mmol/kg, the pH [2] was 9.34 and the 25HC3S concentration [3] was 25.45 mg/mL. For the same molecule, the “% Remaining of 25HC3S” value [3] was 89.3%, the Osmolality [3] was 534 mmol/kg and the pH [3] was 9.28. For the same molecule, the 25HC3S concentration [4] was 24.05 mg/mL, the “% Remaining of 25HC3S” value [4] was 84.4% and the Osmolality [4] was 535 mmol/kg. The pH [4] was 9.12, the 25HC3S concentration [5] was 20.20 mg/mL and the “% Remaining of 25HC3S” value [5] was 70.9%. For the same molecule, the Appearance [5] was “brown clear solutions”, the Osmolality [5] was 569 mmol/kg and the pH [5] was 8.92. The Osmolality [6] was 524 mmol/kg, the pH [6] was 9.40 and the pH (250 mg/mL HPBCD, 50 mM phosphate, 60°C, 29 days) was 7.28. The 25HC3S concentration [7] was 28.50 mg/mL, the “% Remaining of 25HC3S” value [7] was 100.0% and the 25HC3S concentration [8] was 27.13 mg/mL. For the same molecule, the “% Remaining of 25HC3S” value [8] was 95.2%, the Osmolality [8] was 427 mmol/kg and the pH [8] was 7.42. For the same molecule, the 25HC3S concentration [9] was 25.83 mg/mL, the “% Remaining of 25HC3S” value [9] was 90.6% and the Osmolality [9] was 432 mmol/kg. The pH [9] was 7.29, the 25HC3S concentration [10] was 24.65 mg/mL and the “% Remaining of 25HC3S” value [10] was 86.5%. It also gave an Osmolality [10] of 423 mmol/kg, a pH [10] of 7.08 and a 25HC3S concentration [11] of 20.75 mg/mL. The “% Remaining of 25HC3S” value [11] was 72.8%, the Osmolality [11] was 453 mmol/kg and the pH [11] was 6.73. It also gave an Osmolality [12] of 415 mmol/kg, a pH [12] of 7.63 and a pH (250 mg/mL HPBCD, 100 mM phosphate, 60°C, 29 days) of 7.28. The 25HC3S concentration [13] was 28.58 mg/mL, the “% Remaining of 25HC3S” value [13] was 100.0% and the 25HC3S concentration [14] was 27.10 mg/mL. For the same molecule, the “% Remaining of 25HC3S” value [14] was 94.8%, the Osmolality [14] was 589 mmol/kg and the pH [14] was 7.42. The 25HC3S concentration [15] was 25.83 mg/mL, the “% Remaining of 25HC3S” value [15] was 90.4% and the Osmolality [15] was 585 mmol/kg. For the same molecule, the pH [15] was 7.33, the 25HC3S concentration [16] was 24.65 mg/mL and the “% Remaining of 25HC3S” value [16] was 86.2%. For the same molecule, the Osmolality [16] was 589 mmol/kg, the pH [16] was 7.15 and the 25HC3S concentration [17] was 21.05 mg/mL. The “% Remaining of 25HC3S” value [17] was 73.7%, the Appearance [17] was “brown clear solution” and the Osmolality [17] was 616 mmol/kg. It also gave a pH [17] of 6.93, an Osmolality [18] of 573 mmol/kg and a pH [18] of 7.53. The Appearance (250 mg/mL HPBCD, 10, 20 and 50 mM phosphate, 80°C, up to 7 days) was “colorless clear solutions”, the “appearance when removed from 80°C oven and cooled to room temperature” value (10 or 50 mM borate formulations, 80°C up to 7 days) was “a white precipitate was observed” and the “25HC3S” value (60° C., day 0, Borate 10 mM) was 28.58 mg/mL. For the same molecule, the “% Peak Area 25-Hydroxy Cholesterol at RRT = 3.67” value (60° C., day 0, Borate 10 mM) was 0.0 % Peak Area, the “% Peak Area 25HC3S” value (60° C., day 0, Borate 10 mM) was 99.7 % Peak Area and the “% Peak Area Major Thermal Degradant at RRT = 2.64” value (60° C., day 0, Borate 10 mM) was 0.3 % Peak Area. The “% Remaining of 25HC3S” value (60° C., day 0, Borate 10 mM) was 100.0%, the Osmolality (60° C., day 0, Borate 10 mM) was 316 mmol/kg and the pH (60° C., day 0, Borate 10 mM) was 9.36. The “25HC3S” value (60° C., day 0, Borate 50 mM) was 28.50 mg/mL, the “% Peak Area 25-Hydroxy Cholesterol at RRT = 3.67” value (60° C., day 0, Borate 50 mM) was 0.0 % Peak Area and the “% Peak Area 25HC3S” value (60° C., day 0, Borate 50 mM) was 99.9 % Peak Area. For the same molecule, the “% Peak Area Major Thermal Degradant at RRT = 2.64” value (60° C., day 0, Borate 50 mM) was 0.2 % Peak Area, the “% Remaining of 25HC3S” value (60° C., day 0, Borate 50 mM) was 100.0% and the Osmolality (60° C., day 0, Borate 50 mM) was 524 mmol/kg.
